We go through 3 compounds from ChEMBL document CHEMBL4602730, “In Vitro and in Vivo Evaluation of Membrane-Active Flavone Amphiphiles: Semisynthetic Kaempferol-Derived Antimicrobials against Drug-Resistant Gram-Positive Bacteria” (J Med Chem, 2020).

One data set deals with Escherichia coli. The experiment in a line: Antibacterial activity against Escherichia coli assessed as inhibition of bacterial growth incubated for 24 hrs by broth microdilution method. Type of data set: functional.
Data set [1] concerns Staphylococcus aureus. The experiment in a line: Antibacterial activity against Staphylococcus aureus ATCC 29213 assessed as induction of bacterial killing at 8 times MIC incubated for 0.5 hrs followed by re-plating of cultures and measured after 24 hrs by time kill study relative to control. In kind it is functional.
In data set [2] the test system is Staphylococcus aureus. The experiment in a line: Induction of cell surface disruption in Staphylococcus aureus ATCC 29213 at 8 times MIC incubated for 2 hrs by scanning electron microscopy. In kind it is functional, organism-based.
Data set [3] concerns Staphylococcus aureus. The data set is described as follows: Antibacterial activity against Staphylococcus aureus ATCC 29213 assessed as inhibition of bacterial growth incubated for 24 hrs by broth microdilution method. Type of data set: functional. The settings on record: ATCC 29213, 24 h.
Data set [4] has as its system Staphylococcus aureus. The experiment in a line: Antibacterial activity against Staphylococcus aureus ATCC 29213 assessed as suppression of bacterial re-growth at 4 to 8 times MIC incubated for 0.5 to 24 hrs followed by re-plating of cultures and measured after 24 hrs by time kill study relative to control. In kind it is functional, organism-based.
Data set [5] relates to Staphylococcus aureus. The experiment in a line: Antibacterial activity against Staphylococcus aureus ATCC 29213 assessed as induction of bacterial killing at 4 times MIC incubated for 1 hrs followed by re-plating of cultures and measured after 24 hrs by time kill study relative to control. Type of data set: functional.
In data set [6] the test system is Staphylococcus aureus. The data set is described as follows: Resistance index, ratio of MIC for antibacterial activity against Staphylococcus aureus ATCC 29213 passed over 19 cycles in presence of compound for period of 19 consecutive days by broth microdilution method to MIC for antibacterial activity against Staphylococcus aureus ATCC 29213. In kind it is functional.

Data set [7] deals with Staphylococcus aureus. The data set is described as follows: Antibacterial activity against Staphylococcus aureus ATCC 29213 assessed as bacterial cell killing at 4 times MIC incubated for 1 hrs followed by re-plating of cultures and measured after 24 hrs by time kill study relative to control. Type of data set: functional.
Data set [8] relates to Staphylococcus aureus. The data set is described as follows: Induction of cytoplasmic membrane permeabilization in methicillin-resistant Staphylococcus aureus NCTC 10442 at 1 to 8 times MIC by SYTOX green dye based fluorescence assay. In kind it is functional, organism-based.
Data set [9] can be described thus: Induction of hemolysis in rabbit RBC incubated for 1 hr. The settings on record: rabbit red blood cells (erythrocytes). In kind it is cell-based, Oryctolagus cuniculus, Erythrocyte.
Data set [10] in a line: Cytotoxicity in human MDA-MB-231 cells assessed as reduction in cell viability incubated for 24 hrs by CCK8 assay. Type of data set: cell-based.
A further data set relates to Pseudomonas aeruginosa. The experiment in a line: Antibacterial activity against Pseudomonas aeruginosa assessed as inhibition of bacterial growth incubated for 24 hrs by broth microdilution method. Type of data set: functional.
Data set [11] has as its system Staphylococcus aureus. The experiment in a line: Antibacterial activity against methicillin-resistant Staphylococcus aureus N315 assessed as inhibition of bacterial growth incubated for 24 hrs by broth microdilution method. In kind it is functional. The settings on record: N315, 24 h.
In data set [12] the test system is Staphylococcus aureus. The experiment in a line: Induction of bacterial cell membrane integrity loss in Staphylococcus aureus ATCC 29213 incubated for 2 hrs propidium iodide and SYTO9 dye based LIVE/DEAD bacterial viability assay. In kind it is functional, organism-based.
The test system of data set [13] is Staphylococcus aureus. The data set is described as follows: Induction of cytoplasmic membrane permeabilization in Staphylococcus aureus ATCC 29213 at 1 to 8 times MIC by SYTOX green dye based fluorescence assay. Type of data set: functional, organism-based.
Data set [14] is described as follows: Cytotoxicity in human MDA-MB-231 cells assessed as cell viability at 16 times MIC incubated for 24 hrs by CCK8 assay relative to control. In kind it is cell-based. The settings on record: read-out: Activity.
The nature of data set [15]: Cytotoxicity in mouse corneal epithelial cells assessed as cell viability at 16 times MIC incubated for 24 hrs by CCK8 assay relative to control. Type of data set: cell-based. The settings on record: read-out: Activity.
Data set [16] deals with Staphylococcus aureus. The experiment in a line: Antibacterial activity against methicillin-resistant Staphylococcus aureus NCTC 10442 assessed as inhibition of bacterial growth incubated for 24 hrs by broth microdilution method. Type of data set: functional. The settings on record: NCTC 10442, 24 h.
Data set [17] is described as follows: Cytotoxicity in human MDA-MB-231 cells assessed as cell viability at 32 times MIC incubated for 24 hrs by CCK8 assay relative to control. The settings on record: read-out: Activity. Type of data set: cell-based.
Data set [18] is described as follows: Cytotoxicity in mouse corneal epithelial cells assessed as cell viability at 32 times MIC incubated for 24 hrs by CCK8 assay relative to control. Type of data set: cell-based. The settings on record: read-out: Activity.
In data set [19] the test system is Staphylococcus aureus. The experiment in a line: Antibacterial activity against Staphylococcus aureus ATCC 29213 infected in C57BL6 mouse assessed as reduction in bacterial count at 0.5% treated topically 4 times per day for 3 days starting from 1 day after infection relative to control. In kind it is functional.
For data set [20], the system named is Staphylococcus aureus. The experiment in a line: Antibacterial activity against Staphylococcus aureus ATCC 29213 assessed as induction of bacterial killing at 4 times MIC incubated for 8 hrs followed by re-plating of cultures and measured after 24 hrs by time kill study relative to control. Type of data set: functional.

Molecules are shown by their SMILES. Converted amounts (≈) assume the structure as drawn. The source made the active and inactive calls. The rule behind the calls is not given here.

For `COC(=O)[C@H](CCCNC(=N)N)NC(=O)COc1c(-c2ccc(OCC=C(C)C)cc2)oc2cc(OCC=C(C)C)cc(O)c2c1=O`, the MIC entry with Escherichia coli and in the data set with Pseudomonas aeruginosa was “inactive” each time. Also, the LCK in the data set on Staphylococcus aureus [1] amounted to 3.78; in the data set on Staphylococcus aureus [5] it was 3.19. Besides, the outcome in the data set with Staphylococcus aureus [2], with Staphylococcus aureus [4], in the data set with Staphylococcus aureus [8], in the data set with Staphylococcus aureus [12] and in the data set with Staphylococcus aureus [13] was Active. The MIC turned out to be 4.8 µM (≈ 3.12 µg/mL) with Staphylococcus aureus [3], 2.4 µM (≈ 1.56 µg/mL) in the data set with Staphylococcus aureus [11] and 4.8 µM (≈ 3.12 µg/mL) in the data set with Staphylococcus aureus [16]. Besides, the Ratio result in the data set on Staphylococcus aureus [6] is listed as “<=4”. For the same compound, the Activity entry with Staphylococcus aureus [7] is listed as “>=99.9%”. This compound also returned a 50% haemolytic concentration (HC50) at 1 h in data set [9] of 107 µM. For the same compound, the CC50 at 24 h in data set [10] was above 50 µg/mL. For the same compound, the viability at 24 h, 16 times MIC in data set [14] was determined as 67.3%; in data set [15], 62.1%.

For `COC(=O)[C@H](CCCNC(=N)N)NC(=O)COc1c(-c2ccc(OCC=C(C)C)cc2)oc2cc(OCC=C(C)C)cc(OCC(=O)N[C@@H](CCCNC(=N)N)C(=O)OC)c2c1=O`, the MIC was 12.5 to 25 µg/mL (≈ 14.2 to 28.4 µM) in the data set on Escherichia coli; 1.8 µM (≈ 1.58 µg/mL) in the data set on Staphylococcus aureus [3]; 12.5 to 25 µg/mL (≈ 14.2 to 28.4 µM) in the data set on Pseudomonas aeruginosa; 1.8 µM (≈ 1.58 µg/mL) in the data set with Staphylococcus aureus [11]; 1.8 µM (≈ 1.58 µg/mL) with Staphylococcus aureus [16]. In addition, the figures for the LCK in the data set on Staphylococcus aureus [1] and in the data set with Staphylococcus aureus [5] were 3.22 and 3.21, respectively. Moreover, the result in the data set with Staphylococcus aureus [2], with Staphylococcus aureus [4], in the data set on Staphylococcus aureus [8], with Staphylococcus aureus [12] and in the data set with Staphylococcus aureus [13] was Active. For the same compound, the values for the viability at 24 h, 32 times MIC in [17] and in data set [18] were 75% and 70.1%, respectively. In addition, the Ratio entry in the data set on Staphylococcus aureus [6] is on record as “<=4”. For the same compound, the Activity entry in the data set with Staphylococcus aureus [7] is listed as “>=99.9%”; in the data set with Staphylococcus aureus [19], 3.28 log10CFU. In data set [9], the HC50 at 1 h is above 228 µM. For the same compound, the CC50 at 24 h in data set [10] was above 50 µg/mL.

Regarding `CN[C@H](CC(C)C)C(=O)N[C@H]1C(=O)N[C@@H](CC(N)=O)C(=O)N[C@H]2C(=O)N[C@H]3C(=O)N[C@H](C(=O)N[C@H](C(=O)O)c4cc(O)cc(O)c4-c4cc3ccc4O)[C@H](O)c3ccc(c(Cl)c3)Oc3cc2cc(c3O[C@@H]2O[C@H](CO)[C@@H](O)[C@H](O)[C@H]2O[C@H]2C[C@](C)(N)[C@H](O)[C@H](C)O2)Oc2ccc(cc2Cl)[C@H]1O` [VANCOMYCIN], the minimum inhibitory concentration (MIC) in the data set on Staphylococcus aureus [3] was 0.54 µM (≈ 0.783 µg/mL); in the data set on Staphylococcus aureus [11] it was 1.08 µM (≈ 1.57 µg/mL); with Staphylococcus aureus [16], 1.08 µM (≈ 1.57 µg/mL). For the same compound, the LCK in the data set with Staphylococcus aureus [20] was 1.18.
